Values after ≈ are worked out from the molar mass of the structure shown. One block for each molecule: values may come before it.
Columns and labels:
Test in all cases: ≥ marks a high value that may be exact or a test limit, other limits are often not marked, values filed in µg/mL are converted to µM
[1] = system: Staphylococcus aureus ATCC BAA-1556
[2] = system: Escherichia coli ATCC 25922
[3] = system: Pseudomonas aeruginosa PAO1
[4] = system: Staphylococcus aureus USA 300
[5] = system: Klebsiella pneumoniae ATCC 13883
Listeria innocua = system: Listeria innocua
Escherichia coli = system: Escherichia coli
Micrococcus luteus A270 = system: Micrococcus luteus A270
[6] = system: Candida albicans ATCC 10231
[7] = system: Bacillus subtilis ATCC 23857
[8] = system: Klebsiella pneumoniae ATCC 700603
[9] = system: Pseudomonas aeruginosa ATCC 9027
[10] = system: Staphylococcus aureus ATCC 25923
[11] = system: Staphylococcus epidermidis ATCC 12228
[12] = system: Candida albicans ATCC 90028
[13] = system: Escherichia coli ATCC 25726
[14] = system: Pseudomonas aeruginosa ATCC 27853
[15] = system: Staphylococcus aureus NCTC 8325

Compound: CC(C)C[C@H](NC(=O)[C@H](CC(C)C)NC(=O)[C@H](CC(C)C)NC(=O)[C@H](CC(C)C)NC(=O)[C@H](CCCCN)NC(=O)[C@H](CC(C)C)NC(=O)[C@H](CC(C)C)NC(=O)[C@H](CC(C)C)NC(=O)[C@@H](N)CCCCN)C(N)=O [KLLLKLLLL]
MIC [1]: ≥ 100 µM

Compound: CC(C)C[C@H](NC(=O)[C@H](CCCCN)NC(=O)[C@H](CCCCN)NC(=O)[C@H](CC(C)C)NC(=O)[C@H](CC(C)C)NC(=O)[C@H](CC(C)C)NC(=O)[C@H](CC(C)C)NC(=O)[C@H](CC(C)C)NC(=O)[C@@H](N)CC(C)C)C(N)=O [LLLLLLKKL]
MIC [1]: ≥ 100 µM

Compound: CC[C@H](C)[C@H](NC(=O)[C@H](CCCN=C(N)N)NC(=O)[C@@H](NC(=O)[C@@H](NC(=O)[C@H](CCCCN)NC(=O)[C@@H](NC(=O)[C@H](CC(C)C)NC(=O)[C@@H](NC(=O)[C@@H](NC(=O)[C@H](CCCCN)NC(=O)[C@H](CCCN=C(N)N)NC(=O)[C@H](Cc1ccc(O)cc1)NC(=O)CNC(=O)[C@H](Cc1cnc[nH]1)NC(=O)[C@H](CC(N)=O)NC(=O)[C@@H](N)C(C)C)C(C)C)[C@@H](C)O)[C@@H](C)O)[C@@H](C)O)C(C)C)C(=O)N[C@@H](CCCCN)C(=O)N[C@@H](CCCCN)C(=O)N[C@@H](Cc1ccccc1)C(=O)N[C@@H](CCSC)C(=O)O [VNHGYRKVTLTKTVRIKKFM]
MIC [4]: ≥ 128 µM

Compound: CC[C@H](C)[C@H](NC(=O)[C@H](Cc1c[nH]c2ccccc12)NC(=O)[C@H](CCCN=C(N)N)NC(=O)[C@H](CCCN=C(N)N)NC(=O)[C@H](Cc1c[nH]c2ccccc12)NC(=O)[C@@H](N)CCCCN)C(=O)N[C@@H](CCCN=C(N)N)C(=O)N[C@@H](Cc1c[nH]c2ccccc12)C(N)=O [KWRRWIRW]
MIC [1]: 12.5 µM (≈ 16.1 µg/mL)

Compound: CC[C@H](C)[C@H](NC(=O)[C@H](CCCCN)NC(=O)[C@H](CCCCN)NC(=O)[C@H](C)NC(=O)[C@@H](NC(=O)[C@H](C)NC(=O)[C@H](CC(C)C)NC(=O)[C@H](CC(C)C)NC(=O)[C@H](C)NC(=O)[C@H](CCCCN)NC(=O)[C@H](CC(C)C)NC(=O)[C@H](CC(N)=O)NC(=O)[C@@H](N)CC(C)C)C(C)C)C(N)=O [LNLKALLAVAKKI]
MIC [8]: 64 µM (≈ 89.2 µg/mL)
MIC [2]: 16 µM (≈ 22.3 µg/mL)
MIC [9]: 32 µM (≈ 44.6 µg/mL)
MIC [10]: 64 µM (≈ 89.2 µg/mL)
MIC [7]: 16 µM (≈ 22.3 µg/mL)

Compound: CC[C@H](C)[C@H](N)C(=O)N[C@@H](CC(C)C)C(=O)NCC(=O)N[C@H](C(=O)N[C@H](C(=O)N[C@@H](CC(C)C)C(=O)NCC(=O)N[C@@H](CC(C)C)C(=O)N[C@@H](CC(C)C)C(=O)N[C@@H](CCCCN)C(=O)N[C@@H](CC(N)=O)C(=O)N[C@@H](CC(C)C)C(N)=O)[C@@H](C)CC)[C@@H](C)O [ILGTILGLLKNL]
MIC [11]: 4 µM (≈ 5.07 µg/mL)
MIC [2]: 32 µM (≈ 40.5 µg/mL)
MIC [10]: 8 µM (≈ 10.1 µg/mL)
MIC [7]: 4 µM (≈ 5.07 µg/mL)

Compound: CC[C@H](C)[C@H](NC(=O)[C@H](CCC(=O)O)NC(=O)CNC(=O)[C@H](CC(C)C)NC(=O)[C@H](Cc1ccccc1)NC(=O)[C@H](C)NC(=O)[C@H](CCCCN)NC(=O)CNC(=O)[C@H](Cc1ccccc1)NC(=O)[C@H](CCCCN)NC(=O)CNC(=O)[C@H](C)NC(=O)[C@H](CO)NC(=O)[C@H](Cc1cnc[nH]1)NC(=O)[C@H](CC(C)C)NC(=O)[C@@H](NC(=O)[C@H](CCCCN)NC(=O)[C@H](CO)NC(=O)[C@@H](NC(=O)CN)C(C)C)[C@@H](C)CC)C(=O)N[C@@H](CCSC)C(=O)N[C@@H](CCCCN)C(=O)N[C@@H](CO)C(=O)O [GVSKILHSAGKFGKAFLGEIMKS]
MIC [8]: 100 µM (≈ 241 µg/mL)
MIC [2]: 50 µM (≈ 120 µg/mL)
MIC [13]: ≥ 100 µM
MIC [10]: > 100 µM
MIC [14]: 200 µM (≈ 481 µg/mL)

Compound: CC[C@H](C)[C@H](NC(=O)[C@H](CCCCN)NC(=O)[C@H](CCCCN)NC(=O)[C@H](C)NC(=O)[C@H](CC(C)C)NC(=O)[C@H](CC(N)=O)NC(=O)[C@@H](NC(=O)[C@H](CC(C)C)NC(=O)[C@@H](NC(=O)CNC(=O)[C@H](CC(C)C)NC(=O)[C@H](Cc1ccccc1)NC(=O)[C@@H](N)CC(N)=O)[C@@H](C)O)C(C)C)C(=O)N[C@@H](CC(C)C)C(N)=O [NFLGTLVNLAKKIL]
MIC [2]: 40 µM (≈ 61.7 µg/mL)
MIC [15]: 20 µM (≈ 30.9 µg/mL)
MIC [12]: ≥ 80 µM
MIC [13]: ≥ 64 µM
MIC [10]: 16 µM (≈ 24.7 µg/mL)

Compound: CC[C@H](C)[C@H](NC(=O)CN)C(=O)N[C@H](C(=O)N[C@@H](C)C(=O)NCC(=O)N[C@H](C(=O)N[C@H](C(=O)N[C@H](C(=O)N[C@@H](CCCCN)C(=O)N[C@H](C(=O)N[C@@H](C)C(=O)N[C@@H](CCCCN)C(N)=O)[C@@H](C)CC)[C@@H](C)CC)[C@@H](C)CC)[C@@H](C)CC)[C@@H](C)CC [GIIAGIIIKIAK]
MIC [2]: > 128 µM
MIC [7]: ≥ 128 µM

The next lines start with the values.

MIC [2]: > 25 µM
MIC [3]: > 25 µM
MIC [4]: 6.2 µM (≈ 8.3 µg/mL)
MIC [5]: 25 µM (≈ 33.5 µg/mL)
Compound: CC(C)C[C@H](NC(=O)[C@H](CCCCN)NC(=O)CNC(=O)[C@H](CC(C)C)NC(=O)[C@H](CC(C)C)NC(=O)[C@H](CC(C)C)NC(=O)[C@H](CO)NC(=O)[C@H](CC(C)C)NC(=O)[C@H](CC(C)C)NC(=O)[C@H](CC(C)C)NC(=O)[C@H](CO)NC(=O)[C@H](CC(C)C)NC(=O)CN)C(N)=O [GLSLLLSLLLGKL]

MIC (Listeria innocua): ≥ 53 µM
MIC (Escherichia coli): 26 µM (≈ 61.2 µg/mL)
MIC (Micrococcus luteus A270): ≥ 53 µM
Compound: CC(C)C[C@H](NC(=O)[C@H](CO)NC(=O)[C@H](C)NC(=O)[C@H](Cc1cnc[nH]1)NC(=O)[C@@H](NC(=O)[C@H](C)NC(=O)[C@@H]1CCCN1C(=O)[C@@H](NC(=O)[C@H](Cc1ccccc1)NC(=O)[C@H](CC(=O)O)NC(=O)[C@H](CO)NC(=O)[C@@H]1CCCN1C(=O)[C@H](CC(C)C)NC(=O)[C@H](Cc1cnc[nH]1)NC(=O)[C@H](CO)NC(=O)[C@H](C)NC(=O)[C@H](CC(C)C)NC(=O)[C@@H](NC(=O)[C@@H](N)C(C)C)[C@@H](C)O)[C@@H](C)O)C(C)C)C(=O)N[C@@H](CC(=O)O)C(=O)N[C@@H](CCCCN)C(=O)N[C@@H](Cc1ccccc1)C(=O)O [VTLASHLPSDFTPAVHASLDKF]

MIC [6]: > 20.5 µM
MIC [7]: 8.18 µM (≈ 20 µg/mL)
Compound: N=C(N)NCCC[C@H](NC(=O)[C@H](CCCNC(=N)N)NC(=O)[C@H](Cc1ccccc1)NC(=O)[C@H](Cc1ccccc1)NC(=O)[C@H](CCCNC(=N)N)NC(=O)[C@H](CCCNC(=N)N)NC(=O)[C@H](Cc1ccccc1)NC(=O)[C@H](Cc1ccccc1)NC(=O)[C@H](CCCNC(=N)N)NC(=O)[C@H](CCCNC(=N)N)NC(=O)[C@H](Cc1ccccc1)NC(=O)[C@H](Cc1ccccc1)NC(=O)[C@H](CCCNC(=N)N)NC(=O)[C@H](CCCNC(=N)N)NC(=O)[C@H](Cc1ccccc1)NC(=O)[C@@H](N)Cc1ccccc1)C(N)=O [FFRRFFRRFFRRFFRR]

MIC [1]: 3.12 µM (≈ 4.28 µg/mL)
Compound: CC(C)C[C@H](NC(=O)[C@H](Cc1c[nH]c2ccccc12)NC(=O)[C@H](CCCN=C(N)N)NC(=O)[C@H](CC(C)C)NC(=O)[C@H](Cc1c[nH]c2ccccc12)NC(=O)[C@H](Cc1c[nH]c2ccccc12)NC(=O)[C@H](CC(C)C)NC(=O)[C@H](Cc1c[nH]c2ccccc12)NC(=O)[C@@H](N)CC(C)C)C(N)=O [LWLWWLRWL]

MIC [11]: 4 µM (≈ 5.01 µg/mL)
MIC [2]: 64 µM (≈ 80.2 µg/mL)
MIC [10]: 8 µM (≈ 10 µg/mL)
MIC [7]: 4 µM (≈ 5.01 µg/mL)
Compound: CC[C@H](C)[C@H](N)C(=O)N[C@@H](CC(C)C)C(=O)NCC(=O)N[C@H](C(=O)N[C@H](C(=O)N[C@@H](CC(C)C)C(=O)NCC(=O)N[C@@H](CC(C)C)C(=O)N[C@@H](CC(C)C)C(=O)N[C@@H](CCCCN)C(=O)N[C@H](C(=O)N[C@@H](CC(C)C)C(N)=O)[C@@H](C)O)[C@@H](C)CC)[C@@H](C)O [ILGTILGLLKTL]

MIC (Listeria innocua): ≥ 34 µM
MIC (Escherichia coli): 68 µM (≈ 61.9 µg/mL)
MIC (Micrococcus luteus A270): ≥ 34 µM
Compound: CC(C)C[C@H](NC(=O)[C@H](CC(C)C)NC(=O)[C@H](CO)NC(=O)[C@H](Cc1cnc[nH]1)NC(=O)[C@H](CO)NC(=O)[C@H](CC(C)C)NC(=O)[C@H](CC(C)C)NC(=O)[C@@H](N)CCCCN)C(=O)O [KLLSHSLL]

MIC [8]: 40 µM (≈ 113 µg/mL)
MIC [12]: ≥ 80 µM
MIC [13]: 20 µM (≈ 56.4 µg/mL)
MIC [10]: 40 µM (≈ 113 µg/mL)
MIC [14]: 40 µM (≈ 113 µg/mL)
Compound: CC[C@H](C)[C@H](N)C(=O)N[C@@H](CCCCN)C(=O)N[C@H](C(=O)N1CCC[C@H]1C(=O)N[C@@H](C)C(=O)N[C@H](C(=O)N[C@H](C(=O)N[C@@H](CCCCN)C(=O)N[C@@H](CC(=O)O)C(=O)N[C@H](C(=O)N[C@@H](CC(C)C)C(=O)N[C@@H](CCCCN)C(=O)N[C@@H](CCCCN)C(=O)N[C@H](C(=O)N[C@@H](C)C(=O)N[C@@H](CCCCN)C(=O)NCC(=O)N[C@H](C(=O)N[C@@H](CC(C)C)C(=O)N[C@@H](CO)C(=O)N[C@@H](C)C(=O)N[C@H](C(=O)N[C@@H](C)C(=O)NCC(=O)N[C@@H](C)C(=O)N[C@@H](CC(C)C)C(=O)N[C@H](C(=O)N[C@@H](CCC(N)=O)C(=O)O)[C@@H](C)O)C(C)C)C(C)C)C(C)C)[C@@H](C)O)C(C)C)C(C)C)[C@@H](C)CC [IKIPAVVKDTLKKVAKGVLSAVAGALTQ]

— DBAASP
